Source: US20100029604A1, “ANTIBACTERIAL COMBINATION AND ITS USE” (priority 2007, published 2010)
Values after ≈ are worked out from the molar mass of the structure shown. Like-named read-outs stand apart in the source and are kept apart here.

Columns and labels:
E. coli SHV-3 = assay: Synergy MIC, inhibitor at 4 μg/mL (Example 4); assay type: cell-based; conditions: SHV-3, class A, inhibitor constant 4 μg/mL
K. pneumoniae SHV-18 = assay: Synergy MIC, inhibitor at 4 μg/mL (Example 4); assay type: cell-based; conditions: SHV-18, class A, inhibitor constant 4 μg/mL
[1] = test system: Klebsiella pneumoniae TEM-1, SHV; assay: MIC, characterised β-lactamase producing strain (Example 5, Tables 5-7); assay type: cell-based
Procedure: The MIC experiments were performed in duplicate in 96-well microtiter plates using CAMHB. […] The bacterial suspension with final inoculum 10^5 CFU/mL was transferred to the test medium containing the antibacterial substances. In each well of a 96-well microtiter plate was combined 50 μL of bacterial inoculum, 50 μL of antibiotic dilutions (or media for determination of the MIC of the antibiotic in the absence of test compound). Each plate included 4 wells with no bacterial inoculum (negative control) and 4 wells with no test compound and no antibiotic (positive control). The plates were incubated at 35° C. for 24 h. Purity check and colony counts on each inoculum suspension was performed to ensure that the final inoculum concentration routinely obtained closely approximates 5×10^5 CFU/mL. In addition the assay is routinely monitored by testing standard antibiotics and ensuring that MIC values are within the recommended ranges for the respective strains.
(§1) This test permits comparisons to be made between bacterial growth in the presence of antibiotic alone and bacterial growth in the presence of both an antibiotic and a novel (test) compound.

Escherichia coli TEM-1 = assay type: cell-based
Procedure: (§2) The MIC experiments were performed in duplicate in 96-well microtiter plates using CAMHB. Serial twofold dilutions of each antibiotic either alone or in combination with constant concentration ratio of a β-lactamase inhibitor (2:1) were prepared in CAMHB. The bacterial suspension with final inoculum 10^5 CFU/mL was transferred to the test medium containing the antibacterial substances. In each well of a 96-well microtiter plate was combined 50 μL of bacterial inoculum, 50 μL of antibiotic dilutions (or media for determination of the MIC of the antibiotic in the absence of test compound). Each plate included 4 wells with no bacterial inoculum (negative control) and 4 wells with no test compound and no antibiotic (positive control). The plates were incubated at 35° C. for 24 h. Purity check and colony counts on each inoculum suspension was performed to ensure that the final inoculum concentration routinely obtained closely approximates 5×10^5 CFU/mL. In addition the assay is routinely monitored by testing standard antibiotics and ensuring that MIC values are within the recommended ranges for the respective strains.
as §1

[2] = test system: Klebsiella oxytoca K1 highperproduced; assay: MIC, characterised β-lactamase producing strain (Example 5, Tables 5-7); assay type: cell-based
Procedure: as §2, §1

Escherichia coli SHV-3 = assay: as above; assay type: cell-based
Procedure: as §2, §1

Escherichia coli HMS-1 = assay: as above; assay type: cell-based
Procedure: as §2, §1

Escherichia coli OXA-2 = assay: as above; assay type: cell-based
Procedure: as §2, §1

Escherichia coli TEM-31 = assay: as above; assay type: cell-based
Procedure: as §2, §1

Escherichia coli SHV-2A = assay: as above; assay type: cell-based
Procedure: as §2, §1

Escherichia coli TEM-35 = assay: as above; assay type: cell-based
Procedure: as §2, §1

Escherichia coli TEM-3 = assay: as above; assay type: cell-based
Procedure: as §2, §1

Escherichia coli OXA-3 = assay: as above; assay type: cell-based
Procedure: as §2, §1

Escherichia coli OXA-5 = assay: as above; assay type: cell-based
Procedure: as §2, §1

Escherichia coli TEM-2 = assay: as above; assay type: cell-based
Procedure: as §2, §1

[3] = test system: Pseudomonas aeruginosa CARB-3; assay: as above; assay type: cell-based
Procedure: as §2, §1

E. coli TEM-1 = assay type: cell-based; conditions: TEM-1, class A, inhibitor constant 4 μg/mL
C. freundii AmpC = assay: Synergy MIC, inhibitor at 4 μg/mL (Example 4); assay type: cell-based, Citrobacter freundii; conditions: class C, inhibitor constant 4 μg/mL
Procedure: (§3) The in vitro activities of the antibiotics were determined by the broth microdilution method and agar dilution technique as recommended by CLSI guidelines. The MIC experiments were performed in duplicate in 96-well microtiter plates using MHB. Serial twofold dilutions of each antibiotic either alone or in combination with a constant amount (4 μg/mL) of a β-lactamase inhibitor were prepared in MHBII broth. A sterile pipette tip was used to mix the contents of each well (one tip was used going from the low to the high concentration in the same column). The bacterial suspension with final inoculum 10^5 CFU/mL was transferred to the test medium containing the antibacterial substances by a multipoint inoculator (Dynatech, Chantilly, Va., USA). The plates were then incubated at 35° C. for 24 h.
(§4) Following procedures identical to those described in Example 3, representative compound of Formula (I) was tested for its ability to enhance antibiotic efficacy against Class C β-lactamase positive bacterial strains that are highly resistant to β-lactam antibiotics. Class C enzymes included AmpC β-lactamases of Enterobacter Cloacae and Citrobacter freundii.

E. coli TEM-2 = assay type: cell-based; conditions: TEM-2, class A, inhibitor constant 4 μg/mL
E. cloacae AmpC = assay: Synergy MIC, inhibitor at 4 μg/mL (Example 4); assay type: cell-based, Enterobacter Cloacae; conditions: class C, inhibitor constant 4 μg/mL
Procedure: as §3, §4

[4] = Table 7, combination at constant concentration ratio (2:1)
[5] = Table 6, LK-157 at constant 4 μg/mL in combination

CC(C)(O/N=C(\C(=O)N[C@@H]1C(=O)N2C(C(=O)[O-])=C(C[n+]3ccccc3)CS[C@H]12)c1csc(N)n1)C(=O)O [ceftazidime]
MIC (E. coli SHV-3): 0.8 µg/mL
MIC (K. pneumoniae SHV-18): 25.6 µg/mL
MIC [1, 4]: 8 µg/mL
MIC (Escherichia coli TEM-1; Table 7, Escherichia coli TEM-1, combination at constant concentration ratio (2:1)): 0.25 µg/mL
MIC ([2]; Table 7, Klebsiella oxytoca K1 hyperproduced, first listed strain, combination at constant concentration ratio (2:1)): 1 µg/mL
MIC ([2]; Table 7, Klebsiella oxytoca K1 hyperproduced, second listed strain, combination at constant concentration ratio (2:1)): 0.5 µg/mL
MIC (Escherichia coli SHV-3; Table 7, Escherichia coli SHV-3, combination at constant concentration ratio (2:1)): 2 µg/mL
MIC (Escherichia coli HMS-1; Table 7, Escherichia coli HMS-1, combination at constant concentration ratio (2:1)): 0.25 µg/mL
MIC (Escherichia coli OXA-2; Table 7, Escherichia coli OXA-2, combination at constant concentration ratio (2:1)): 1 µg/mL
MIC (Escherichia coli TEM-31; Table 7, Escherichia coli TEM-31, combination at constant concentration ratio (2:1)): 0.25 µg/mL
MIC (Escherichia coli SHV-2A; [4]): 4 µg/mL
MIC (Escherichia coli TEM-35; Table 7, Escherichia coli TEM-35, combination at constant concentration ratio (2:1)): 0.25 µg/mL
MIC (Escherichia coli TEM-3; Table 7, Escherichia coli TEM-3, combination at constant concentration ratio (2:1)): 32 µg/mL
MIC (Escherichia coli OXA-3; Table 7, Escherichia coli OXA-3, combination at constant concentration ratio (2:1)): 0.5 µg/mL
MIC (Escherichia coli OXA-5; Table 7, Escherichia coli OXA-5, combination at constant concentration ratio (2:1)): 0.5 µg/mL
MIC (Escherichia coli TEM-2; Table 7, Escherichia coli TEM-2, combination at constant concentration ratio (2:1)): 0.5 µg/mL
MIC ([3]; Table 7, Pseudomonas aeruginosa CARB-3, combination at constant concentration ratio (2:1)): 2 µg/mL
MIC (E. coli TEM-1): 3.2 µg/mL (≈ 5.85 µM)
MIC (C. freundii AmpC): > 25.6 µg/mL
MIC (E. coli TEM-2): 1.6 µg/mL (≈ 2.93 µM)
MIC (E. cloacae AmpC; first listed): > 25.6 µg/mL
MIC (E. cloacae AmpC; second listed): > 25.6 µg/mL
MIC (E. cloacae AmpC; third listed): > 25.6 µg/mL

CO/N=C(\C(=O)N[C@@H]1C(=O)N2C(C(=O)O)=C(COC(C)=O)CS[C@H]12)c1csc(N)n1 [cefotaxime]
MIC (E. coli SHV-3): 3.2 µg/mL
MIC (K. pneumoniae SHV-18): 3.2 µg/mL
MIC [1, 5]: 4 µg/mL
MIC (Escherichia coli TEM-1; Table 6, Escherichia coli TEM-1, LK-157 at constant 4 μg/mL in combination): 0.063 µg/mL
MIC ([2]; Table 6, Klebsiella oxytoca K1 highperproduced, first listed strain, LK-157 at constant 4 μg/mL in combination): 1 µg/mL
MIC ([2]; Table 6, Klebsiella oxytoca K1 highperproduced, second listed strain, LK-157 at constant 4 μg/mL in combination): 1 µg/mL
MIC (Escherichia coli SHV-3; Table 6, Escherichia coli SHV-3, LK-157 at constant 4 μg/mL in combination): 32 µg/mL
MIC (Escherichia coli HMS-1; Table 6, Escherichia coli HMS-1, LK-157 at constant 4 μg/mL in combination): 0.063 µg/mL
MIC (Escherichia coli OXA-2; Table 6, Escherichia coli OXA-2, LK-157 at constant 4 μg/mL in combination): 0.063 µg/mL
MIC (Escherichia coli TEM-31; Table 6, Escherichia coli TEM-31, LK-157 at constant 4 μg/mL in combination): 0.063 µg/mL
MIC (Escherichia coli SHV-2A; [5]): 8 µg/mL
MIC (Escherichia coli TEM-35; Table 6, Escherichia coli TEM-35, LK-157 at constant 4 μg/mL in combination): 0.031 µg/mL
MIC (Escherichia coli TEM-3; Table 6, Escherichia coli TEM-3, LK-157 at constant 4 μg/mL in combination): 16 µg/mL
MIC (Escherichia coli OXA-3; Table 6, Escherichia coli OXA-3, LK-157 at constant 4 μg/mL in combination): 0.063 µg/mL
MIC (Escherichia coli OXA-5; Table 6, Escherichia coli OXA-5, LK-157 at constant 4 μg/mL in combination): 0.25 µg/mL
MIC (Escherichia coli TEM-2; Table 6, Escherichia coli TEM-2, LK-157 at constant 4 μg/mL in combination): 0.063 µg/mL
MIC ([3]; Table 6, Pseudomonas aeruginosa CARB-3, LK-157 at constant 4 μg/mL in combination): 16 µg/mL
MIC (E. coli TEM-1): > 25.6 µg/mL
MIC (C. freundii AmpC): > 25.6 µg/mL
MIC (E. coli TEM-2): 0.1 µg/mL (≈ 0.22 µM)
MIC (E. cloacae AmpC; first listed): > 25.6 µg/mL
MIC (E. cloacae AmpC; second listed): > 25.6 µg/mL
MIC (E. cloacae AmpC; third listed): > 25.6 µg/mL

CO/N=C(\C(=O)N[C@@H]1C(=O)N2C(C(=O)[O-])=C(C[N+]3(C)CCCC3)CS[C@H]12)c1csc(N)n1 [cefepime]
MIC (E. coli SHV-3): 0.4 µg/mL
MIC (K. pneumoniae SHV-18): 0.8 µg/mL
MIC ([1]; functional group 2b, unknown, LK-157 in combination constant 4 μg/mL): 4 µg/mL
MIC (Escherichia coli TEM-1; Escherichia coli TEM-1, functional group 2b, LK-157 in combination constant 4 μg/mL): 0.125 µg/mL
MIC ([2]; Klebsiella oxytoca K1 highperproduced, functional group 2be, first listed (r47), LK-157 in combination constant 4 μg/mL): 1 µg/mL
MIC ([2]; Klebsiella oxytoca K1 highperproduced, functional group 2be, second listed (r48), LK-157 in combination constant 4 μg/mL): 4 µg/mL
MIC (Escherichia coli SHV-3; Escherichia coli SHV-3, functional group 2be, LK-157 in combination constant 4 μg/mL): 4 µg/mL
MIC (Escherichia coli HMS-1; Escherichia coli HMS-1, functional group 2b, LK-157 in combination constant 4 μg/mL): 0.125 µg/mL
MIC (Escherichia coli OXA-2; Escherichia coli OXA-2, functional group 2d, LK-157 in combination constant 4 μg/mL): 0.125 µg/mL
MIC (Escherichia coli TEM-31; Escherichia coli TEM-31, functional group 2br, LK-157 in combination constant 4 μg/mL): 0.125 µg/mL
MIC (Escherichia coli SHV-2A; functional group 2be, LK-157 in combination constant 4 μg/mL): 16 µg/mL
MIC (Escherichia coli TEM-35; Escherichia coli TEM-35, functional group 2br, LK-157 in combination constant 4 μg/mL): 0.125 µg/mL
MIC (Escherichia coli TEM-3; Escherichia coli TEM-3, functional group 2be, LK-157 in combination constant 4 μg/mL): 4 µg/mL
MIC (Escherichia coli OXA-3; Escherichia coli OXA-3, functional group 2d, LK-157 in combination constant 4 μg/mL): 0.125 µg/mL
MIC (Escherichia coli OXA-5; Escherichia coli OXA-5, functional group 2d, LK-157 in combination constant 4 μg/mL): 0.125 µg/mL
MIC (Escherichia coli TEM-2; Escherichia coli TEM-2, functional group 2b, LK-157 in combination constant 4 μg/mL): 0.25 µg/mL
MIC ([3]; Pseudomonas aeruginosa CARB-3, functional group 2c, LK-157 in combination constant 4 μg/mL): 16 µg/mL
MIC (E. coli TEM-1): 12.8 µg/mL (≈ 26.6 µM)
MIC (C. freundii AmpC): 0.8 µg/mL
MIC (E. coli TEM-2): ≦0.025
MIC (E. cloacae AmpC; first listed): 0.8 µg/mL
MIC (E. cloacae AmpC; second listed): 1.6 µg/mL
MIC (E. cloacae AmpC; third listed): 1.6 µg/mL
